From PubChem BioAssay AID1963860 (Molecular Pharmacology Branch, DTP, NCI, 2024)

System: CN0375-F725-PDC KRAS spheroid viability
Experiment: Anticancer human tumor CN0375-F725-PDC patient-derived colon carcinoma cell line growth inhibition [KRAS2]
Details: spheroids with HUVEC and MSC; for IC50: curve of first compound; for viability, T/C: stronger effect = lower value
How it was run: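 KRAS-mutant tumor cells were grown as spheroids with HUVEC endothelial cells and human MSCs as stroma. Targeted agents were tested alone and with KRAS pathway inhibitors. Doses started at or near clinical Cmax, or 10 microM, descending half-log.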

[1] = second compound 0.0316 µM, first compound 0.0316 µM
[2] = second compound 0.1 µM, first compound 0.0316 µM
[3] = second compound 0.316 µM, first compound 0.0316 µM
[4] = second compound 1 µM, first compound 0.0316 µM
[5] = second compound 3.16 µM, first compound 0.0316 µM
[6] = second compound 0.0316 µM, first compound 0.1 µM
[7] = second compound 0.0316 µM, first compound 0.316 µM
[8] = second compound 0.0316 µM, first compound 1 µM
[9] = second compound 0.0316 µM, first compound 3.16 µM
[10] = second compound 0.0316 µM, first compound 10 µM
[11] = second compound 0.1 µM, first compound 0.1 µM
[12] = second compound 0.1 µM, first compound 0.316 µM
[13] = second compound 0.1 µM, first compound 1 µM
[14] = second compound 0.1 µM, first compound 3.16 µM
[15] = second compound 0.1 µM, first compound 10 µM
[16] = second compound 0.316 µM, first compound 0.1 µM
[17] = second compound 0.316 µM, first compound 0.316 µM
[18] = second compound 0.316 µM, first compound 1 µM
[19] = second compound 0.316 µM, first compound 3.16 µM
[20] = second compound 0.316 µM, first compound 10 µM
[21] = second compound 1 µM, first compound 0.1 µM
[22] = second compound 1 µM, first compound 0.316 µM
[23] = second compound 1 µM, first compound 1 µM
[24] = second compound 1 µM, first compound 3.16 µM
[25] = second compound 1 µM, first compound 10 µM
[26] = second compound 3.16 µM, first compound 0.1 µM
[27] = second compound 3.16 µM, first compound 0.316 µM
[28] = second compound 3.16 µM, first compound 1 µM
[29] = second compound 3.16 µM, first compound 3.16 µM
[30] = second compound 3.16 µM, first compound 10 µM
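Note: spheroids exposed to agents for 7 days.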

Compound `CC(=O)Nc1cccc(-n2c(=O)n(C3CC3)c(=O)c3c(Nc4ccc(I)cc4F)n(C)c(=O)c(C)c32)c1` + C=CC(=O)N1CCN(c2nc(OCC3CCCN3C)nc3c2CCN(c2cccc4cccc(C)c24)C3)CC1CC#N has an IC50 (second compound 0.0316 µM) of 5.65 nM, an IC50 (second compound 0.1 µM) of 4.91 nM and an IC50 (second compound 0.316 µM) of 3.19 nM. The IC50 (second compound 1 µM) was 1.62 nM, the IC50 (second compound 3.16 µM) was under 0.1 nM and the viability, T/C (second compound 0.0316 µM, first compound 0.0001 µM) was 91%. For the same compound, the viability, T/C (second compound 0.0316 µM, first compound 0.000316 µM) was 85.7%, the viability, T/C (second compound 0.0316 µM, first compound 0.001 µM) was 67.1% and the viability, T/C (second compound 0.0316 µM, first compound 0.00316 µM) was 53.3%. For the same compound, the viability, T/C (second compound 0.0316 µM, first compound 0.01 µM) was 48.6%, the viability, T/C [1] was 33.9% and the viability, T/C (second compound 0.1 µM, first compound 0.0001 µM) was 92.3%. The viability, T/C (second compound 0.1 µM, first compound 0.000316 µM) was 86%, the viability, T/C (second compound 0.1 µM, first compound 0.001 µM) was 66.2% and the viability, T/C (second compound 0.1 µM, first compound 0.00316 µM) was 54.2%. For the same compound, the viability, T/C (second compound 0.1 µM, first compound 0.01 µM) was 44.5%, the viability, T/C [2] was 30.7% and the viability, T/C (second compound 0.316 µM, first compound 0.0001 µM) was 86.8%. For the same compound, the viability, T/C (second compound 0.316 µM, first compound 0.000316 µM) was 77.7%, the viability, T/C (second compound 0.316 µM, first compound 0.001 µM) was 61.6% and the viability, T/C (second compound 0.316 µM, first compound 0.00316 µM) was 50.8%. For the same compound, the viability, T/C (second compound 0.316 µM, first compound 0.01 µM) was 38.3%, the viability, T/C [3] was 28.1% and the viability, T/C (second compound 1 µM, first compound 0.0001 µM) was 81.9%. The viability, T/C (second compound 1 µM, first compound 0.000316 µM) was 73.1%, the viability, T/C (second compound 1 µM, first compound 0.001 µM) was 53.7% and the viability, T/C (second compound 1 µM, first compound 0.00316 µM) was 41.2%. It also gave a viability, T/C (second compound 1 µM, first compound 0.01 µM) of 35.7%, a viability, T/C [4] of 25.3% and a viability, T/C (second compound 3.16 µM, first compound 0.0001 µM) of 19.1%. The viability, T/C (second compound 3.16 µM, first compound 0.000316 µM) was 20.7%, the viability, T/C (second compound 3.16 µM, first compound 0.001 µM) was 9.33% and the viability, T/C (second compound 3.16 µM, first compound 0.00316 µM) was 12.7%. It also gave a viability, T/C (second compound 3.16 µM, first compound 0.01 µM) of 1.9% and a viability, T/C [5] of 7.1%.

`COC(=O)c1ccc2c(C(=Nc3ccc(N(C)C(=O)CN4CCN(C)CC4)cc3)c3ccccc3)c(O)[nH]c2c1` + C=CC(=O)N1CCN(c2nc(OCC3CCCN3C)nc3c2CCN(c2cccc4cccc(C)c24)C3)CC1CC#N was tested, and the IC50 (second compound 0.0316 µM) was 2970 nM, the IC50 (second compound 0.1 µM) was 2800 nM and the IC50 (second compound 0.316 µM) was 2340 nM. For the same compound, the IC50 (second compound 1 µM) was 1480 nM, the IC50 (second compound 3.16 µM) was under 31.6 nM and the viability, T/C [1] was 102%. For the same compound, the viability, T/C [6] was 95.3%, the viability, T/C [7] was 91.1% and the viability, T/C [8] was 91.5%. The viability, T/C [9] was 47.6%, the viability, T/C [10] was 0.22% and the viability, T/C [2] was 104%. It also gave a viability, T/C [11] of 98.8%, a viability, T/C [12] of 92.6% and a viability, T/C [13] of 89.4%. The viability, T/C [14] was 45.1%, the viability, T/C [15] was 0.36% and the viability, T/C [3] was 99.5%. It also gave a viability, T/C [16] of 100%, a viability, T/C [17] of 93.2% and a viability, T/C [18] of 90.8%. It also gave a viability, T/C [19] of 35.5%, a viability, T/C [20] of 0.16% and a viability, T/C [4] of 93.8%. For the same compound, the viability, T/C [21] was 91.3%, the viability, T/C [22] was 85.2% and the viability, T/C [23] was 68.7%. For the same compound, the viability, T/C [24] was 15.4%, the viability, T/C [25] was 0.41% and the viability, T/C [5] was 26.5%. The viability, T/C [26] was 20.2%, the viability, T/C [27] was 21.8% and the viability, T/C [28] was 5.53%. The viability, T/C [29] was 1.94% and the viability, T/C [30] was 0.67%.

Compound `COc1cc(Nc2ncc3c(n2)-c2ccc(Cl)cc2C(c2c(F)cccc2OC)=NC3)ccc1C(=O)O` + C=CC(=O)N1CCN(c2nc(OCC3CCCN3C)nc3c2CCN(c2cccc4cccc(C)c24)C3)CC1CC#N has an IC50 (second compound 0.0316 µM) of over 10000 nM, an IC50 (second compound 0.1 µM) of over 10000 nM and an IC50 (second compound 0.316 µM) of over 10000 nM. For the same compound, the IC50 (second compound 1 µM) was over 10000 nM, the IC50 (second compound 3.16 µM) was under 31.6 nM and the viability, T/C [1] was 96.6%. For the same compound, the viability, T/C [6] was 108%, the viability, T/C [7] was 91.8% and the viability, T/C [8] was 95%. The viability, T/C [9] was 93.9%, the viability, T/C [10] was 74.9% and the viability, T/C [2] was 109%. It also gave a viability, T/C [11] of 105%, a viability, T/C [12] of 91.3% and a viability, T/C [13] of 92.5%. For the same compound, the viability, T/C [14] was 95.9%, the viability, T/C [15] was 79.3% and the viability, T/C [3] was 103%. It also gave a viability, T/C [16] of 101%, a viability, T/C [17] of 94.8% and a viability, T/C [18] of 91.8%. It also gave a viability, T/C [19] of 88%, a viability, T/C [20] of 75.7% and a viability, T/C [4] of 88.3%. It also gave a viability, T/C [21] of 90.8%, a viability, T/C [22] of 82.9% and a viability, T/C [23] of 83.2%. The viability, T/C [24] was 83.9%, the viability, T/C [25] was 73.8% and the viability, T/C [5] was 16.5%. For the same compound, the viability, T/C [26] was 23%, the viability, T/C [27] was 14% and the viability, T/C [28] was 44.8%. The viability, T/C [29] was 42.3% and the viability, T/C [30] was 22.3%.
